Laboratory results as given in ChEMBL document CHEMBL6071191, “Correlating Predicted Reactivities with Experimental Inhibition Data of Covalent ChlaDUB1 Inhibitors” (ACS Med Chem Lett, 2024).

What was measured:
[1] = target: T1, Deubiquitinase and deneddylase Dub1 (Chlamydia trachomatis serovar L2 (strain ATCC VR-902B / DSM 19102 /434/Bu)) (UniProt B0B9A0); test: Binding affinity to Chlamydia trachomatis DUB1 using Ub-Rh110Gly as substrate assessed as ratio of Kinact/Ki
T1 sequence (whole entry): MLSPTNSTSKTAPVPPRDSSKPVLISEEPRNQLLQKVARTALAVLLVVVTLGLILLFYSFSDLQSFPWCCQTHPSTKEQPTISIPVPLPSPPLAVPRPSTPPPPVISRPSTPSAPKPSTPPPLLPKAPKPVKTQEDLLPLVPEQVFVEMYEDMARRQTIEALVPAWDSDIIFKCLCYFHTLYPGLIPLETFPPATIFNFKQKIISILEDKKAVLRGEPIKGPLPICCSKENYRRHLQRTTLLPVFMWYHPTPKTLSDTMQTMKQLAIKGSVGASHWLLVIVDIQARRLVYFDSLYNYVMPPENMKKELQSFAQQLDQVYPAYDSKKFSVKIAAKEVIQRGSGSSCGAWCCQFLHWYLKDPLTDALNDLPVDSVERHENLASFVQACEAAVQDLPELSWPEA

[2] = Drug metabolism in PBS assessed as pseudo-first-order rate constant of Cysteine at 50 uM incubated for >10 hrs in presence of L-Cysteine by HPLC-UV analysis; assay type: ADME; settings: buffer

Row | SMILES | Ratio [1] | K [2]
1 | N#Cc1nccc(C(=O)NCc2ccc(C(=O)NCc3ccccc3)cc2)n1 | 10.7 M⁻¹ s⁻¹ | –
2 | COc1ccccc1CNC(=O)c1ccc(CNC(=O)c2nc(C#N)ncc2F)cc1 | 32.2 M⁻¹ s⁻¹ | –
3 | COc1ccccc1CNC(=O)c1ccc(CNC(=O)[C@H]2CCN(C#N)C2)cc1 | 1.1 M⁻¹ s⁻¹ | 0.87 h⁻¹
4 | COc1ccccc1CNC(=O)c1ccc(CNC(=O)c2coc(C#N)n2)cc1 | 137 M⁻¹ s⁻¹ | –
5 | COc1ccccc1CNC(=O)c1ccc(CNC(=O)C2CCN(C#N)CC2)cc1 | – | 0.151 h⁻¹
6 | COc1ccccc1CNC(=O)c1ccc(CNS(=O)(=O)c2cnc(C#N)nc2)cc1 | 15.6 M⁻¹ s⁻¹ | –
7 | COc1ccccc1CNC(=O)c1ccc(CNC(=O)[C@@H]2CCN(C#N)C2)cc1 | 0.761 M⁻¹ s⁻¹ | 0.824 h⁻¹
